Assay results as given in patent US20160375006A1, “USES OF PARALOG-SELECTIVE INHIBITORS OF GSK3 KINASES” (priority 2012, published 2016).

Experiments:
SRPK1 = SRPK1 (Homo sapiens, UniProt Q96SB4)
Method: (§1) This was completed utilizing one of two assays depending on the kinase being examined.
(§2) A solution of IMAP binding reagent (IMAP Screening Express kit; Molecular Devices) (60 μL) was added to each well and incubated for 30 minutes.
(§3) A solution of termination buffer (QuickScout Screening assist MSA; Carna Biosciences) (60 μL) was added to each well. The entire reaction mixture was then applied to a LabChip3000 system (Caliper Life Science) and the product and substrate peptide peaks were separated and quantified.
(§4) The assay utilized was identical to that of the single point inhibitory activity determination (MSA) but run in dose response. […] A solution of termination buffer (QuickScout Screening assist MSA; Carna Biosciences) (60 μL) was added to each well. The entire reaction mixture was then applied to a LabChip3000 system (Caliper Life Science) and the product and substrate peptide peaks were separated and quantified.

skMLCK = skMLCK (Homo sapiens, UniProt Q9H1R3)
Method: as §1, §2, §3, §4

PKCη = PKCη (Homo sapiens, UniProt P24723)
Method: as §1, §2, §3, §4

BRAF(V600E)_Cascade = BRAF(V600E)_Cascade (Homo sapiens, UniProt P15056, V600E)
Method: as §1, §2, §3

YES(T348I) = YES(T348I) (Homo sapiens, UniProt P07947, T348I)
Method: as §1, §2, §3, §4

BRK = BRK (Homo sapiens, UniProt Q13882)
IKKα = IKKα (Homo sapiens, UniProt O15111)
Method: as §1, §2, §3, §4

PKD3 = PKD3 (Homo sapiens, UniProt O94806)
Method: as §1, §2, §3

MSSK1 = MSSK1 (Homo sapiens, UniProt Q9UPE1)
Method: as §1, §2, §3, §4

MAP2K3_Cascade = MAP2K3_Cascade (Homo sapiens, UniProt P46734)
Method: as §1, §2, §3, §4

FES = FES (Homo sapiens, UniProt P07332)
Method: as §1, §2, §3, §4

TBK1 = TBK1 (Homo sapiens, UniProt Q9UHD2)
Method: as §1, §2, §3

EPHA8 = EPHA8 (Homo sapiens, UniProt P29322)
Method: as §1, §2, §3, §4

MSK1 = MSK1 (Homo sapiens, UniProt O75582)
Method: as §1, §2, §3

CHK2 = CHK2 (Homo sapiens, UniProt O96017)
Method: as §1, §2, §3, §4

SPHK1 = SPHK1 (Homo sapiens, UniProt Q9NYA1)
Method: as §1, §2, §3, §4

PAK5 = PAK5 (Homo sapiens, UniProt Q9P286)
Method: as §1, §2, §3

MAP3K5_Cascade = MAP3K5_Cascade (Homo sapiens, UniProt Q99683)
Method: as §1, §2, §3, §4

HER2 = HER2 (Homo sapiens, UniProt P04626)
Method: as §1, §2, §3, §4

MST2 = MST2 (Homo sapiens, UniProt Q13188)
Method: as §1, §2, §3

EPHA1 = EPHA1 (Homo sapiens, UniProt P21709)
Method: as §2, §3, §4

CK1α = CK1α (Homo sapiens, UniProt P48729)
Method: as §1, §3
(§5) The assay utilized was identical to that of the single point inhibitory activity determination (MSA) but run in dose response.

FGFR1 = FGFR1 (Homo sapiens, UniProt P11362)
Method: as §1, §2, §3, §4

EPHB1 = EPHB1 (Homo sapiens, UniProt P54762)
Method: as §1, §2, §3, §4

ABL = ABL (Homo sapiens, UniProt P00519)
Method: as §1, §2, §3, §4

NPM1-ALK = NPM1-ALK (Homo sapiens, UniProt Q9UM73)
Method: as §1, §2, §3

HIPK4 = biological target: T1, HIPK4 (Homo sapiens, UniProt Q8NE63); assay: Carna kinase panel; format: biochemical
T1 construct: purchased Carna Biosciences
Method: as §1, §2, §3

PIM3 = PIM3 (Homo sapiens, UniProt Q86V86)
Method: as §1, §2, §3

INSR = INSR (Homo sapiens, UniProt P06213)
TNK1 = TNK1 (Homo sapiens, UniProt Q13470)
From the text: as §1, §5

KIT(V560G) = KIT(V560G) (Homo sapiens, UniProt P10721, V560G)
Method: as §1, §2, §3, §4

MARK2 = MARK2 (Homo sapiens, UniProt Q7KZI7)
Method: as §1, §2, §3, §4

MLK3_Cascade = MLK3_Cascade (Homo sapiens, UniProt Q16584)
Method: as §1, §2, §3, §4

NEK9 = NEK9 (Homo sapiens, UniProt Q8TD19)
Method: as §1, §2, §3, §4

RSK2 = RSK2 (Homo sapiens, UniProt P51812)
Method: as §1, §2, §3, §4

AKT2 = AKT2 (Homo sapiens, UniProt P31751)
Method: as §1, §2, §3, §4

SIK = SIK (Homo sapiens, UniProt P57059)
Method: as §1, §2, §3, §4

BLK = BLK (Homo sapiens, UniProt P51451)
Method: as §1, §2, §3, §4

RSK4 = RSK4 (Homo sapiens, UniProt Q9UK32)
Method: as §1, §2, §3

p70S6K = p70S6K (Homo sapiens, UniProt P23443)
Method: as §1, §2, §3, §4

MER = MER (Homo sapiens, UniProt Q12866)
Method: as §1, §2, §3, §4

Chain of NEK9 (Q8TD19 whole entry): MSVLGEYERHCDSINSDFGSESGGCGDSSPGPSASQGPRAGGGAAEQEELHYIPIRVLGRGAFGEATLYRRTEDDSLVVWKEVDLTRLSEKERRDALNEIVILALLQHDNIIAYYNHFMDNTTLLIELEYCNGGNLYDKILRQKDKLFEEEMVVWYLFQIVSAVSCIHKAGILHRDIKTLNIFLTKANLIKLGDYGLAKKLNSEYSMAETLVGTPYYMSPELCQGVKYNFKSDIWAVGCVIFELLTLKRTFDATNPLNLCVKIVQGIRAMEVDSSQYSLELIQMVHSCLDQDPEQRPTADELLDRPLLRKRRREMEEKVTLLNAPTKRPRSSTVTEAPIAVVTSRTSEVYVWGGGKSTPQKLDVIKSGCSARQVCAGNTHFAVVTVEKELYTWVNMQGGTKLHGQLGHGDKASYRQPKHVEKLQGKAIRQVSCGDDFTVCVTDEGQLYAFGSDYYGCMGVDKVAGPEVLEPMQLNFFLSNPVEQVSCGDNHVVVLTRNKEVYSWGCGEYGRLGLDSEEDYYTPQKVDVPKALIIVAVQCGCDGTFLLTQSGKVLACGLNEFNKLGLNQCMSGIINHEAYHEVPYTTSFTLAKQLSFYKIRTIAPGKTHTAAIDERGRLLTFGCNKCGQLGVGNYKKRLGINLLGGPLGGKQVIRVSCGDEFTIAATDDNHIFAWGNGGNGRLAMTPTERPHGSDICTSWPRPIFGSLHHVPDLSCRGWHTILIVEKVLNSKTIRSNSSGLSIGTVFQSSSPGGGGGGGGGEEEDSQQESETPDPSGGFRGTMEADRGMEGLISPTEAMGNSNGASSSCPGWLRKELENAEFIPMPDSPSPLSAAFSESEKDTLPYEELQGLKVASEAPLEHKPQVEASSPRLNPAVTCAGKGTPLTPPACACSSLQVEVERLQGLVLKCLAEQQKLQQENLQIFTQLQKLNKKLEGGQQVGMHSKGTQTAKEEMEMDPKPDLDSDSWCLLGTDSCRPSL
Chain of NPM1-ALK (Q9UM73 with tags, fused parts or gaps): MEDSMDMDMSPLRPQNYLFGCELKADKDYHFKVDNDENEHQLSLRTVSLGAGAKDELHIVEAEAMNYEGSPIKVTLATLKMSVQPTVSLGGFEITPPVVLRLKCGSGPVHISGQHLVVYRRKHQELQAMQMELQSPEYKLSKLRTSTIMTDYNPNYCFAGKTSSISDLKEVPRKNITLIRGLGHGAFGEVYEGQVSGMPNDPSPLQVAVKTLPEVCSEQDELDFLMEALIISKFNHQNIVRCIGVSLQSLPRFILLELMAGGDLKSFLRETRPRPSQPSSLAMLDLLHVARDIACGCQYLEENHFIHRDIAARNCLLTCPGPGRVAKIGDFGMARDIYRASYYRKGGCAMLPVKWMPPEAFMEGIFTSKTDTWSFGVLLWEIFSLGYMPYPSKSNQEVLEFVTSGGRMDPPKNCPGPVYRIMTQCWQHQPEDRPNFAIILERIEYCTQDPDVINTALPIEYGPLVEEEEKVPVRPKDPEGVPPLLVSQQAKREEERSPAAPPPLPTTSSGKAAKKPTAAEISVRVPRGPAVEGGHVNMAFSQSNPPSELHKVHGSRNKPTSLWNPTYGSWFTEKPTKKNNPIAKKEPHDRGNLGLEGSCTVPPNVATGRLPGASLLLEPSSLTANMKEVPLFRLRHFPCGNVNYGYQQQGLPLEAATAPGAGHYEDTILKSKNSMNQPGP
Chain of FES (P07332 whole entry): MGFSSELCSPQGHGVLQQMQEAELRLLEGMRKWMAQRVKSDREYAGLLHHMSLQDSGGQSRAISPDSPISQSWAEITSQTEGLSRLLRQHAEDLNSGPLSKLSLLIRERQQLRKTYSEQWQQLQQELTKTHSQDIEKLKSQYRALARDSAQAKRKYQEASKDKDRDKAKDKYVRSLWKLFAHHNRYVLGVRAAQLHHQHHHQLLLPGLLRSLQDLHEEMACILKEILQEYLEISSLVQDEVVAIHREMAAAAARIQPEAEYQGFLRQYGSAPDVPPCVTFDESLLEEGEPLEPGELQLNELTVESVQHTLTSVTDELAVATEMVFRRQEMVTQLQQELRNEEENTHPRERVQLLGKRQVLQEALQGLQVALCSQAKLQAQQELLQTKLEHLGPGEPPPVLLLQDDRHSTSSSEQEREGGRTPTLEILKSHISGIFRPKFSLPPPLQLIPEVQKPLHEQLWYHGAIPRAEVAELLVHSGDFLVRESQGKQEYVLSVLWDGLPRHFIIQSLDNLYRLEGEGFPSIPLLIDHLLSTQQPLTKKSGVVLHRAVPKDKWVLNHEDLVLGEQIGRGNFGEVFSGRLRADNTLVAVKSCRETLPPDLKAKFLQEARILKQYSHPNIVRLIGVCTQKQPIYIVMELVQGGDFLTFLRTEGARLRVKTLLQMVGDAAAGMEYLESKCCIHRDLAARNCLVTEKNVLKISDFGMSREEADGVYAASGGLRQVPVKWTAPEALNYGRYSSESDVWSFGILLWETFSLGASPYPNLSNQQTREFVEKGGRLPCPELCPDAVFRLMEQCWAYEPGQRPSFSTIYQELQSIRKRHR
Chain of MST2 (Q13188 whole entry): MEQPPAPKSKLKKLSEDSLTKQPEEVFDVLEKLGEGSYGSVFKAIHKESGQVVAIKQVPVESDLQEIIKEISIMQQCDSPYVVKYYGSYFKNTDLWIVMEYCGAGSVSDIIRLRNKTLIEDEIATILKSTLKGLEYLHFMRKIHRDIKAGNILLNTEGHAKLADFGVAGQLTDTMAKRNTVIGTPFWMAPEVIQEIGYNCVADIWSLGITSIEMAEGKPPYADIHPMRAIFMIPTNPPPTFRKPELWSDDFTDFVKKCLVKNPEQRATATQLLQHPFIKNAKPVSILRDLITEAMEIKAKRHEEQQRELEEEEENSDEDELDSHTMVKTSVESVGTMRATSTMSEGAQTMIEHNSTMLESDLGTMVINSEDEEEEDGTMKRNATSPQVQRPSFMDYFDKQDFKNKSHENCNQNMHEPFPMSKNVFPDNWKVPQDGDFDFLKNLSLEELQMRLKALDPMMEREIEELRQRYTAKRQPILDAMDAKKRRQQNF
Chain of YES(T348I) (P07947 whole entry T348I): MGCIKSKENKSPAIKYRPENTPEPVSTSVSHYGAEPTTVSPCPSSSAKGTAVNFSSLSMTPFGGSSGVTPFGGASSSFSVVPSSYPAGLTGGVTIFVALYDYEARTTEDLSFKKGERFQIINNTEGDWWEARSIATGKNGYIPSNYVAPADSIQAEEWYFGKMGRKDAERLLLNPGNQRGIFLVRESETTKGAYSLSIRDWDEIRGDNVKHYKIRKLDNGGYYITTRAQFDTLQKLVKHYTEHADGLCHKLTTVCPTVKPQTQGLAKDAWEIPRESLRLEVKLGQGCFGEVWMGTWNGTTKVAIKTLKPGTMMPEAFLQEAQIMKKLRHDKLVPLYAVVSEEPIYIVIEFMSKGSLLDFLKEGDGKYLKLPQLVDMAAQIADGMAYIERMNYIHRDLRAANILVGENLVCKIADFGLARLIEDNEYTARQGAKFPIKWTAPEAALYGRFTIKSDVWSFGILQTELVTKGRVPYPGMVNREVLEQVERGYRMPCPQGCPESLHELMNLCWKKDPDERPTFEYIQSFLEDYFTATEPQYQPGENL
Chain of PKD3 (O94806 whole entry): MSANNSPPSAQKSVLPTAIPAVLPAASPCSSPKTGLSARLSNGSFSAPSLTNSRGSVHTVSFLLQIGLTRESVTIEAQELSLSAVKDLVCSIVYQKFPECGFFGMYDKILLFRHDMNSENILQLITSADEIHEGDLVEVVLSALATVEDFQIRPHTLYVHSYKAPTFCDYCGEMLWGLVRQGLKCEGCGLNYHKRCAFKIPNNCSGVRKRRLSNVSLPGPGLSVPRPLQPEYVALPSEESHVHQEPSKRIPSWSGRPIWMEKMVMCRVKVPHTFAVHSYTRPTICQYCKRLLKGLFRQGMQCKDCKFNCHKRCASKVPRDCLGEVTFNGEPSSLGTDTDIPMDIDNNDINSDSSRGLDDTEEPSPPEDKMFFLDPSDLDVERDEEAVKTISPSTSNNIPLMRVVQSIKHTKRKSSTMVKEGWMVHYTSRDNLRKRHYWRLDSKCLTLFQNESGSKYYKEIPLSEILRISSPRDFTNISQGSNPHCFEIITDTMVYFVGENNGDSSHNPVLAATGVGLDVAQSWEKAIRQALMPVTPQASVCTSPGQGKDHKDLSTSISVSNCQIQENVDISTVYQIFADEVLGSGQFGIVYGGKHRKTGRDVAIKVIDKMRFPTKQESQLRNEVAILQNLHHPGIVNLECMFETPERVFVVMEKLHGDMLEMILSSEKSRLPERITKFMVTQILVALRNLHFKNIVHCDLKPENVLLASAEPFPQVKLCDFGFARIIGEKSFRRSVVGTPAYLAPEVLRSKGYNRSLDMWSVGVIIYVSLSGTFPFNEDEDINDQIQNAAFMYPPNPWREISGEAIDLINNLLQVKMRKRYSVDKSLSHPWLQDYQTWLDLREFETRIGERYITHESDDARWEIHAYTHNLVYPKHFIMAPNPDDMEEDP
Chain of AKT2 (P31751 whole entry): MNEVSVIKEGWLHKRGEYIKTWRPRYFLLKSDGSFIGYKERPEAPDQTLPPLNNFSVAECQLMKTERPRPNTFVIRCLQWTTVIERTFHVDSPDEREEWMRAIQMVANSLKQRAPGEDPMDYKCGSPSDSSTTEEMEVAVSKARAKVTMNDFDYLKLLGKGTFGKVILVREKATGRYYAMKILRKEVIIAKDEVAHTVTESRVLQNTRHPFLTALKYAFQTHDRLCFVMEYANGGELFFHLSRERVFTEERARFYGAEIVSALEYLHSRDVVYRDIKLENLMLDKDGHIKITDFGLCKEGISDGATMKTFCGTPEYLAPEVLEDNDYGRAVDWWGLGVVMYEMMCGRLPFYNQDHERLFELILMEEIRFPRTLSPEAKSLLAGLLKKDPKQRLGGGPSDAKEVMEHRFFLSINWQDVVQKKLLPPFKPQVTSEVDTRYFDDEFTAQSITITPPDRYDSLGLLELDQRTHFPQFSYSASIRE

## CC[C@@]1(c2ccccc2)C2=C(CC(C)(C)CC2=O)Nc2n[nH]cc21 [BRD0705]
SRPK1
  % Inhibition at 10 μM: −2.0%
skMLCK
  % Inhibition at 10 μM: −2.5%
PKCη
  % Inhibition at 10 μM: −4.0%
BRAF(V600E)_Cascade
  % Inhibition at 10 μM: 7.0%
YES(T348I)
  % Inhibition at 10 μM: 3.3%
BRK
  % Inhibition at 10 μM: −1.4%
IKKα
  % Inhibition at 10 μM: −0.2%
PKD3
  % Inhibition at 10 μM: 3.9%
MSSK1
  % Inhibition at 10 μM: −1.6%
MAP2K3_Cascade
  % Inhibition at 10 μM: 6.7%
FES
  % Inhibition at 10 μM: 0.6%
TBK1
  % Inhibition at 10 μM: 1.7%
EPHA8
  % Inhibition at 10 μM: 2.9%
MSK1
  % Inhibition at 10 μM: −27.1%
CHK2
  % Inhibition at 10 μM: −3.6%
SPHK1
  % Inhibition at 10 μM: −20.5%
PAK5
  % Inhibition at 10 μM: 9.3%
MAP3K5_Cascade
  % Inhibition at 10 μM: 1.9%
HER2
  % Inhibition at 10 μM: −11.1%
MST2
  % Inhibition at 10 μM: −3.4%
EPHA1
  % Inhibition at 10 μM: −2.3%
CK1α
  % Inhibition at 10 μM: 6.0%
FGFR1
  % Inhibition at 10 μM: −2.7%
EPHB1
  % Inhibition at 10 μM: −9.9%
ABL
  % Inhibition at 10 μM: 4.2%
NPM1-ALK
  % Inhibition at 10 μM: 3.7%
HIPK4
  % Inhibition at 10 μM: 2.1%
PIM3
  % Inhibition at 10 μM: 1.2%
INSR
  % Inhibition at 10 μM: −1.4%
TNK1
  % Inhibition at 10 μM: −4.0%
KIT(V560G)
  % Inhibition at 10 μM: −1.7%
MARK2
  % Inhibition at 10 μM: −6.2%
MLK3_Cascade
  % Inhibition at 10 μM: 4.6%
NEK9
  % Inhibition at 10 μM: 3.5%
RSK2
  % Inhibition at 10 μM: 0.4%
AKT2
  % Inhibition at 10 μM: −4.7%
SIK
  % Inhibition at 10 μM: −4.8%
BLK
  % Inhibition at 10 μM: −3.4%
RSK4
  % Inhibition at 10 μM: 1.1%
p70S6K
  % Inhibition at 10 μM: −7.8%
MER
  % Inhibition at 10 μM: −3.3%

## CC(C)(C)Cc1[nH]nc2c1[C@](C)(c1ccccc1)C1=C(CC(C)(C)CC1=O)N2 [BRD3731]
SRPK1; 10 μM
  % Inhibition 10 μM: 5.0%
skMLCK; 10 μM
  % Inhibition 10 μM: 9.4%
PKCη; 10 μM
  % Inhibition 10 μM: −5.8%
BRAF(V600E)_Cascade; 10 μM
  % Inhibition 10 μM: −5.2%
YES(T348I); 10 μM
  % Inhibition 10 μM: −2.3%
BRK; 10 μM
  % Inhibition 10 μM: −5.6%
IKKα; 10 μM
  % Inhibition 10 μM: 1.8%
PKD3; 10 μM
  % Inhibition 10 μM: 2.6%
MSSK1; 10 μM
  % Inhibition 10 μM: 2.8%
MAP2K3_Cascade; 10 μM
  % Inhibition 10 μM: −8.8%
FES; 10 μM
  % Inhibition 10 μM: 0.4%
TBK1; 10 μM
  % Inhibition 10 μM: −0.5%
EPHA8; 10 μM
  % Inhibition 10 μM: −1.9%
MSK1; 10 μM
  % Inhibition 10 μM: 7.4%
CHK2; 10 μM
  % Inhibition 10 μM: 1.5%
SPHK1; 10 μM
  % Inhibition 10 μM: 3.4%
PAK5; 10 μM
  % Inhibition 10 μM: 6.5%
MAP3K5_Cascade; 10 μM
  % Inhibition 10 μM: 0.4%
HER2; 10 μM
  % Inhibition 10 μM: 3.8%
MST2; 10 μM
  % Inhibition 10 μM: 1.5%
EPHA1; 10 μM
  % Inhibition 10 μM: 2.1%
CK1α; 10 μM
  % Inhibition 10 μM: −5.6%
FGFR1; 10 μM
  % Inhibition 10 μM: 2.3%
EPHB1; 10 μM
  % Inhibition 10 μM: 2.7%
ABL; 10 μM
  % Inhibition 10 μM: 11.4%
NPM1-ALK; 10 μM
  % Inhibition 10 μM: −2.1%
HIPK4; 10 μM
  % Inhibition 10 μM: 15.9%
PIM3; 10 μM
  % Inhibition 10 μM: 13.1%
INSR; 10 μM
  % Inhibition 10 μM: −2.8%
TNK1; 10 μM
  % Inhibition 10 μM: −6.7%
KIT(V560G); 10 μM
  % Inhibition 10 μM: 1.4%
MARK2; 10 μM
  % Inhibition 10 μM: 16.5%
MLK3_Cascade; 10 μM
  % Inhibition 10 μM: −0.8%
NEK9; 10 μM
  % Inhibition 10 μM: 2.9%
RSK2; 10 μM
  % Inhibition 10 μM: 42.8%
AKT2; 10 μM
  % Inhibition 10 μM: −8.4%
SIK; 10 μM
  % Inhibition 10 μM: 8.2%
BLK; 10 μM
  % Inhibition 10 μM: 4.9%
RSK4; 10 μM
  % Inhibition 10 μM: 33.9%
p70S6K; 10 μM
  % Inhibition 10 μM: 12.5%
MER; 10 μM
  % Inhibition 10 μM: 33.7%
